Assay [1] deals with T1, PARK7 (Homo sapiens, UniProt Q99497).
T1 sequence (Q99497 1-189): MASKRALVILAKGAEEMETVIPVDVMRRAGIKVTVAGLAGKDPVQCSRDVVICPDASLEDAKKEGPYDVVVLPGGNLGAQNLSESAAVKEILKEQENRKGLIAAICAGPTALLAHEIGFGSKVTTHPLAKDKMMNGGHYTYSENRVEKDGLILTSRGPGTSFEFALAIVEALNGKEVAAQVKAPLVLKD
The experiment in a line: Hit validation and pure-compound testing in the PARK7 FP assay with JYQ-107. In kind it is biochemical. The note with it: for inhibition at 0.25 µM: read-out: % Inhibition 0.25 µM; for inhibition at 0.5 µM: read-out: % Inhibition 0.5 µM.

In assay [2] the target is T1, PARK7. The experiment in a line: High-throughput screen of the crude compound library, PARK7 fluorescence polarization (FP) assay with FP reagent JYQ-107. The note with it: 1.25 µM, crude compound library, read-out: HTS FP assay %Inhibition (1.25 µM). In kind it is biochemical. (Fluorescence polarisation rises when a labelled molecule tumbles more slowly, as on binding a larger partner.)

Molecules are shown by their SMILES. Read-outs that look alike come from different tables or passages of the source.

In the case of `N#CN1CC[C@@H](C(=O)Nc2nc3c(s2)CN(C(=O)c2cc(-c4ccco4)on2)CC3)C1` [Compound 139], in assay [1] (crude compounds), the inhibition at 0.25 µM was determined as 58.2%, the inhibition at 0.5 µM is 80.9% and 1 µM produced 94.3% inhibition. In addition, the inhibition at 1.25 µM in assay [2] amounted to 91.5%.
For `N#CN1CC[C@@H](C(=O)Nc2nc3c(s2)CN(C(=O)c2ccc(Oc4cccc(Cl)c4)cn2)CC3)C1` [Compound 268], in that order: 33.9%, 63.1%, 82.8% and 89.7%.
In the case of `N#CN1CC[C@@H](C(=O)Nc2nc3c(s2)CN(C(=O)c2cccnc2Oc2ccc(Cl)cc2Cl)CC3)C1` [Compound 345], in assay [1] (crude compounds), the inhibition at 0.25 µM is 63.1%, the inhibition at 0.5 µM was found to be 85% and the inhibition at 1 µM was 95%. The inhibition at 1.25 µM in assay [2] (FP reagent JYQ-107) is 92.1%.
Take `CC(C)c1nc(Cn2cc(C(=O)N3CCc4nc(NC(=O)[C@@H]5CCN(C#N)C5)sc4C3)ccc2=O)cs1` [Compound 149]: in assay [1] (crude compounds), the inhibition at 0.25 µM worked out at 42.9%, the inhibition at 0.5 µM was 69.6% and the inhibition at 1 µM turned out to be 89.6%. In assay [2], the inhibition at 1.25 µM came to 93.2%.
The like results for `N#CN1CC[C@@H](C(=O)Nc2nc3c(s2)CN(C(=O)c2cnn(-c4ccc(Br)cc4)c2)CC3)C1` [Compound 219] were, in that order, 65.1%, 87.4%, 96.7% and 96.4%.
The like results for `N#CN1CC[C@@H](C(=O)Nc2nc3c(s2)CN(C(=O)c2cn(CCc4ccccc4)nn2)CC3)C1` [Compound 76] were, in that order, 54.4%, 78%, 92.1% and 91.3%.
As for `N#CN1CC[C@@H](C(=O)Nc2nc3c(s2)CN(C(=O)c2ccc(Cn4cc(Br)cn4)o2)CC3)C1` [Compound 140], in assay [1] (crude compounds), the inhibition at 0.25 µM was found to be 36.9%, the inhibition at 0.5 µM stood at 62.1% and 1 µM produced 85.7% inhibition. Also, in assay [2], the inhibition at 1.25 µM was determined as 90.7%.
For `N#CN1CC[C@@H](C(=O)Nc2nc3c(s2)CN(C(=O)c2csc(C4CC4)n2)CC3)C1` [Compound 152], in that order: 45.4%, 67.6%, 89.3% and 92.4%.
Take `COc1ccc(C(=O)N2CCc3nc(NC(=O)[C@@H]4CCN(C#N)C4)sc3C2)cc1S(=O)(=O)N1CCCCCC1` [Compound 133, (R)-N-(5-(3-(Azepan-1-ylsulfonyl)-4-methoxybenzoyl)-4,5,6,7-tetrahydrothiazolo[5,4-c]pyridin-2-yl)-1-cyanopyrrolidine-3-carboxamid]: in assay [1] (crude compounds), the inhibition at 0.25 µM is 76.3%, the inhibition at 0.5 µM was 89.1% and 1 µM produced 98.8% inhibition. In addition, in assay [1] (pure compounds), the inhibition at 0.25 µM was 77.9% and the inhibition at 1 µM is 95.4%. Besides, in assay [2], the inhibition at 1.25 µM was 90.8%.
Turning to `N#CN1CC[C@@H](C(=O)Nc2nc3c(s2)CN(C(=O)c2ccc(-c4ccccn4)nc2)CC3)C1` [Compound 274], in assay [1] (crude compounds), the inhibition at 0.25 µM amounted to 44.5%, the inhibition at 0.5 µM came to 71.4% and the inhibition at 1 µM was 91.8%. The inhibition at 1.25 µM in assay [2] amounted to 92.9%.
The like results for `N#CN1CC[C@@H](C(=O)Nc2nc3c(s2)CN(C(=O)C2CC(=O)N(C4CCCCCC4)C2)CC3)C1` (some centres unmarked) [Compound 163] were, in that order, 43.1%, 70.9%, 90.3% and 89.6%.
For `COc1ccc(C(=O)N2CCc3nc(NC(=O)[C@@H]4CCN(C#N)C4)sc3C2)cc1S(=O)(=O)NCCCN1CCOCC1` [Compound 242], in that order: 46.8%, 71.2%, 91.4% and 89.2%.
Turning to `N#CN1CC[C@@H](C(=O)Nc2nc3c(s2)CN(C(=O)c2cccc(-c4ncon4)c2)CC3)C1` [Compound 381], in assay [1] (crude compounds), the inhibition at 0.25 µM was found to be 64.1%, the inhibition at 0.5 µM came out at 84.8% and the inhibition at 1 µM was 97.7%. Moreover, the inhibition at 1.25 µM in assay [2] (FP reagent JYQ-107) amounted to 93.4%.
For `Cn1cc(-c2cc(C(=O)N3CCc4nc(NC(=O)[C@@H]5CCN(C#N)C5)sc4C3)n[nH]2)cn1` [Compound 337], in assay [1] (crude compounds), the inhibition at 0.25 µM is 51.5%, the inhibition at 0.5 µM was determined as 72.7% and the inhibition at 1 µM worked out at 92.5%. Also, the inhibition at 1.25 µM in assay [2] stood at 89.6%.
For `N#CN1CC[C@@H](C(=O)Nc2nc3c(s2)CN(C(=O)c2cnn(-c4cccc(Br)c4)c2)CC3)C1` [Compound 156], in that order: 50.5%, 79.8%, 94.7% and 92.6%.
The like results for `N#CN1CC[C@@H](C(=O)Nc2nc3c(s2)CN(C(=O)c2cc(C4CCCCC4)[nH]n2)CC3)C1` [Compound 164] were, in that order, 48.2%, 75.6%, 94.4% and 95.1%.
For the molecule `CC1CCCCN1S(=O)(=O)c1ccccc1C(=O)N1CCc2nc(NC(=O)[C@@H]3CCN(C#N)C3)sc2C1` (some centres unmarked) [Compound 386], in assay [1] (crude compounds), the inhibition at 0.25 µM came to 57.7%, the inhibition at 0.5 µM worked out at 79.9% and the inhibition at 1 µM stood at 95.9%. Besides, in assay [2] (FP reagent JYQ-107), the inhibition at 1.25 µM came out at 94.5%.
On to `N#CN1CC[C@@H](C(=O)Nc2nc3c(s2)CN(C(=O)c2coc(C#Cc4ccccc4)c2)CC3)C1` [Compound 311], for which, in assay [1] (crude compounds), the inhibition at 0.25 µM was found to be 18.8%, the inhibition at 0.5 µM is 50.2% and the inhibition at 1 µM came to 83.4%. Besides, the inhibition at 1.25 µM in assay [2] worked out at 90.8%.
For the molecule `N#CN1CC[C@@H](C(=O)Nc2nc3c(s2)CN(C(=O)c2cccnc2Oc2ccccc2Br)CC3)C1` [Compound 313], in assay [1] (crude compounds), the inhibition at 0.25 µM was 63%, the inhibition at 0.5 µM is 81.5% and the inhibition at 1 µM turned out to be 94.7%. Moreover, in assay [2], the inhibition at 1.25 µM was found to be 94.5%.
For `N#CN1CC[C@@H](C(=O)Nc2nc3c(s2)CN(C(=O)c2cc(-n4ccnc4)ccn2)CC3)C1` [Compound 22], in that order: 52.2%, 81%, 96% and 90.7%.
For `N#CN1CC[C@@H](C(=O)Nc2nc3c(s2)CN(C(=O)c2cn(C4CCC4)nn2)CC3)C1` [Compound 30], in that order: 52.3%, 75.7%, 93.6% and 89.2%.
For `N#CN1CC[C@@H](C(=O)Nc2nc3c(s2)CN(C(=O)c2cccc(Oc4ccc(Cl)cc4)n2)CC3)C1` [Compound 312], in that order: 34.1%, 62.9%, 89.5% and 92.1%.
For `N#CN1CC[C@@H](C(=O)Nc2nc3c(s2)CN(C(=O)c2cnn(-c4ccc(C(F)(F)F)cc4)c2)CC3)C1` [Compound 314], in assay [1] (crude compounds), the inhibition at 0.25 µM stood at 43.8%, the inhibition at 0.5 µM was 75.1% and the inhibition at 1 µM stood at 93%. The inhibition at 1.25 µM in assay [2] was found to be 98.2%.
Take `N#CN1CC[C@@H](C(=O)Nc2nc3c(s2)CN(C(=O)c2ccc(=O)n(C4CC4)c2)CC3)C1` [Compound 369]: in assay [1] (crude compounds), the inhibition at 0.25 µM turned out to be 60.5%, the inhibition at 0.5 µM turned out to be 81% and the inhibition at 1 µM came to 94.1%. In addition, the inhibition at 1.25 µM in assay [2] (FP reagent JYQ-107) was 89.2%.
Take `COc1ccccc1-c1cc(C(=O)N2CCc3nc(NC(=O)[C@@H]4CCN(C#N)C4)sc3C2)n[nH]1` [Compound 293]: in assay [1] (crude compounds), the inhibition at 0.25 µM was found to be 48.1%, the inhibition at 0.5 µM amounted to 76% and the inhibition at 1 µM came to 93%. In assay [2], the inhibition at 1.25 µM is 97.5%.
For `N#CN1CC[C@@H](C(=O)Nc2nc3c(s2)CN(C(=O)c2cccc(Cn4ccnc4)c2)CC3)C1` [Compound 215], in that order: 52.1%, 78.4%, 93.3% and 91.5%.
The like results for `Cc1ccc([C@@H]2C[C@H]2C(=O)N2CCc3nc(NC(=O)[C@@H]4CCN(C#N)C4)sc3C2)s1` [Compound 188] were, in that order, 53.3%, 79%, 94.5% and 94.2%.
For `N#CN1CC[C@@H](C(=O)Nc2nc3c(s2)CN(C(=O)c2ccc(Cl)c(N4CCCS4(=O)=O)c2)CC3)C1` [Compound 197], in that order: 65.4%, 85.8%, 95% and 95.6%.
For `N#CN1CC[C@@H](C(=O)Nc2nc3c(s2)CN(C(=O)CCn2nc(C(F)(F)F)cc2C2CC2)CC3)C1` [Compound 333], in assay [1] (crude compounds), the inhibition at 0.25 µM came to 57.5%, the inhibition at 0.5 µM was found to be 79.2% and the inhibition at 1 µM is 94.5%. Further, the inhibition at 1.25 µM in assay [2] is 93.5%.
The like results for `CCC1(Cn2cc(C(=O)N3CCc4nc(NC(=O)[C@@H]5CCN(C#N)C5)sc4C3)nn2)COC1` [Compound 83] were, in that order, 47.6%, 73.1%, 92.7% and 92.3%.

For orientation: inhibition means the relative decrease from the control value, in per cent.

The record behind these values is paper PMC11129182, “Development of Inhibitors, Probes, and PROTAC Provides a Complete Toolbox to Study PARK7 in the Living Cell” (Journal of Medicinal Chemistry, 2024).
